Assay in all cases: inhibition of tumour cell growth, NCI panel, 48 h
The test system of assay [1] is A549 NSCLC.
Assay [2] relates to ACHN renal.
Assay [3] concerns BT-549 breast.
Assay [4] has as its system COLO 205 colon.
Assay [5] has as its system EKVX NSCLC.
Assay [6] concerns HCT-15 colon.
Assay [7] has as its system HOP-62 NSCLC.
For assay [8], the system named is HOP-92 NSCLC.
In assay [9] the test system is IGROV1 ovarian.
For assay [10], the system named is MALME-3M melanoma.
In assay [11] the test system is MDA-MB-435.
The subject of assay [12] is MDA-N.
The test system of assay [13] is NCI-H460 lung.
Assay [14] concerns NCI-H522 lung.
The subject of assay [15] is OVCAR-3 ovarian.
In assay [16] the test system is OVCAR-8 ovarian.
In assay [17] the test system is SK-MEL-5 melanoma.
Assay [18] relates to SNB-19 CNS.
The test system of assay [19] is SW-620 colon.
In assay [20] the test system is TK-10 renal.

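Growth conditions: 96-well plates. Treatment: test compound, 48 hours, 5 concentrations. Analysis: linear interpolation between bracketing concentrations; unreached endpoints set to highest concentration. The concentration for full growth arrest is given as TGI.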 Where only a bound is given, the exact number is not on record here.

In the case of `CSc1nc(SC)c2ncn(C3CC(Oc4ccc(C)cc4)C(COc4ccc(C)cc4)O3)c2n1` (stereo not drawn), the TGI in assay [1], in [2], in assay [3], in assay [4], in assay [5] and in assay [6] was more than 100 µM throughout. For the same molecule, the TGI in assay [7], in assay [8], in assay [9], in assay [10], in assay [11] and in assay [12] was more than 100 µM throughout. The TGI in assay [13], in assay [14], in assay [15], in [16], in [17] and in assay [18] was more than 100 µM each time. The TGI in assay [19] and in [20] was more than 100 µM each time.

As for `O=C(Nc1ccc(Cl)c(Cl)c1)N1N=C2c3ccccc3CCC2C1c1ccc(Cl)cc1` (stereo not drawn), the TGI in [1], in [2], in [3], in [4], in assay [5] and in assay [6] was more than 100 µM each time. The TGI in assay [7], in assay [8], in assay [9], in assay [10], in [11] and in assay [12] was more than 100 µM throughout. Besides, the TGI in [13], in [14], in assay [15], in assay [16], in assay [17] and in [18] was more than 100 µM each time. The TGI in [19] and in [20] was more than 100 µM in each case.

Consider `NS(=O)(=O)c1ccc(Nc2c3ccccc3nc3c(C(=O)NCCO)cccc23)cc1`, for which the TGI in assay [1] amounted to 0.448 µM; in assay [2], 0.917 µM; in [3], 0.311 µM; in [4], 0.206 µM; in assay [5], 0.772 µM; in assay [6], 0.333 µM. Besides, the TGI worked out at 0.443 µM in assay [7]; 0.618 µM in assay [8]; 0.45 µM in assay [9]; 0.268 µM in assay [10]; 0.513 µM in assay [11]; 0.412 µM in [12]. Also, the TGI worked out at 0.186 µM in [13]; 0.272 µM in [14]; 0.318 µM in [15]; 0.902 µM in assay [16]; 0.221 µM in [17]; 0.355 µM in [18]. Moreover, the TGI in [19] turned out to be 0.277 µM; in [20] it was 0.726 µM.

In the case of `NCCC(=O)N[C@@H](Cc1cc(O)c(O)c(SCC(NC(=O)CC[C@H](N)C(=O)O)C(=O)NCC(=O)O)c1)C(=O)O` (stereo partly drawn), the TGI in assay [1], in assay [2], in assay [3], in assay [4], in assay [5] and in [6] was more than 50 µM throughout. In addition, the TGI in assay [7], in [8], in assay [9], in [10], in [11] and in assay [12] was more than 50 µM in each case. The TGI in [13], in assay [14], in assay [15], in assay [18], in assay [19] and in [20] was more than 50 µM each time.

`COc1ccc2c(ccc3c(COC(=O)NC(C)C)c(COC(=O)NC(C)C)n(C)c32)c1`: the TGI in [1] came out at 55.2 µM; in [2] it was 7.13 µM; in assay [3] it was 29.4 µM; in assay [4], 22.6 µM; in assay [5] it was 44.8 µM; in assay [6], 28.9 µM. Moreover, the TGI in assay [7] came out at 20.9 µM; in [8] it was 27.2 µM; in assay [9] it was 26 µM; in assay [10], 12.2 µM; in assay [11] it was 44.1 µM; in assay [12], 24.7 µM. Also, the TGI in assay [13] was 2.04 µM; in assay [14], 12.8 µM; in assay [15], 26.8 µM; in assay [16] it was 34.2 µM; in assay [17] it was 28.4 µM; in assay [18], more than 100 µM. Moreover, the TGI turned out to be 32.8 µM in [19] and 47.8 µM in [20].

Consider `c1ccc(C(=NNc2cnc3ccccc3n2)c2ccccn2)cc1`, for which the TGI in assay [1] came to 15 µM; in assay [2] it was 12.6 µM; in [3], 24.5 µM; in assay [4] it was 24.6 µM; in assay [5] it was 13.4 µM; in assay [6], 14.5 µM. In addition, the TGI is 20 µM in assay [7]; 28.3 µM in assay [8]; 11.5 µM in [9]; 23 µM in assay [10]; more than 47.6 µM in [11]; more than 52.2 µM in assay [12]. Besides, the TGI in assay [13] was 10.5 µM; in assay [14], 12.3 µM; in assay [15] it was 12.2 µM; in assay [16], 2.68 µM; in [17], 16 µM; in assay [18] it was more than 39.6 µM. The molecule further showed a TGI in [19] of 22.5 µM.

Regarding `CCCCCCCCCCCCCCCCOCC(CCl)OP(=O)(O)OP(=O)(O)OCC1OC(n2ccc(N)nc2=O)C(O)C1O` (stereo not drawn), the TGI in [1], in [2], in assay [3], in assay [4], in assay [5] and in [6] was more than 100 µM in each case. Further, the TGI in [7], in assay [8], in assay [9], in assay [10], in [11] and in assay [12] was more than 100 µM in each case. In addition, the TGI in assay [13], in assay [14], in assay [15], in [16], in assay [17] and in [18] was more than 100 µM each time. Also, the TGI in assay [19] and in assay [20] was more than 100 µM throughout.

`Cn1/c(=N\N=C(\CNCCO)[C@@H](O)[C@@H]2OC(c3ccccc3)OC[C@H]2O)sc2ccccc21` (stereo partly drawn): the TGI in assay [1] was found to be 31.1 µM; in [2] it was 44 µM; in assay [3] it was 37.2 µM; in assay [4], 30.9 µM; in [5], 33.2 µM; in assay [6], 54.6 µM. Moreover, the TGI in [7] turned out to be 34.7 µM; in [8], 32 µM; in assay [9], 35 µM; in assay [10], 32.3 µM; in [11], 35 µM; in [12], 32.5 µM. Further, the TGI in [13] is 49 µM; in assay [14] it was 32.7 µM; in assay [15], 32.7 µM; in assay [16], 37 µM; in assay [17], 28.5 µM; in assay [18], 26.3 µM. The TGI in assay [19] worked out at 37.5 µM; in [20] it was 36.3 µM.

`CC(=N\N=C\c1ccccn1)/C(C)=N/N=C(C)/C(C)=N/N=C/c1ccccn1`: the TGI in assay [1], in [2], in assay [3], in assay [4], in assay [5] and in assay [6] was more than 100 µM throughout. The TGI in assay [7], in [8], in assay [9], in assay [10], in [11] and in [12] was more than 100 µM each time. The TGI in assay [13], in [14], in [15], in assay [16], in assay [17] and in [18] was more than 100 µM throughout. The TGI in assay [19] and in [20] was more than 100 µM in each case.

With `COc1ccc(/C(CC2OC(=O)c3ccccc32)=N\NC(=O)C[N+](C)(C)C)cc1` (stereo not drawn), the TGI in assay [1] was more than 100 µM; in [2], more than 100 µM; in [3], 77.1 µM; in assay [4], 71 µM; in assay [5], more than 100 µM; in assay [6], 44.8 µM. The TGI in [7] is more than 100 µM; in [8] it was 67.8 µM; in assay [9], more than 100 µM; in assay [10], more than 100 µM; in [11], 71.9 µM; in assay [12], more than 100 µM. In addition, the TGI is 66.7 µM in [13]; 64.1 µM in assay [14]; more than 100 µM in [15]; 52.9 µM in assay [16]; 59.9 µM in [17]; 96.5 µM in assay [18]. Also, the values for the TGI in [19] and in assay [20] were 64.1 µM and 87.8 µM, respectively.

For `O=c1c2cc([N+](=O)[O-])ccc2nc2n1CCCCC2`, the TGI in assay [1], in assay [2], in [3], in assay [4], in assay [5] and in assay [6] was more than 100 µM in each case. The TGI in assay [7], in assay [8], in assay [9], in [10], in assay [11] and in assay [12] was more than 100 µM in each case. In addition, the TGI in assay [13], in [14], in assay [15], in assay [16], in assay [17] and in assay [19] was more than 100 µM in each case. Also, the TGI in [20] was more than 100 µM.

Turning to `O[C@@H]1C[C@H]2N3CC[C@@]2(c2cc4c(cc2C3)OCO4)[C@H]2O[C@@H]12`, the TGI in [1] is more than 100 µM; in [2] it was more than 100 µM; in assay [3], more than 100 µM; in assay [4], 0.0204 µM; in assay [5] it was more than 100 µM; in assay [6] it was more than 100 µM. Moreover, the TGI in [7], in [8], in assay [9], in assay [10], in [11] and in [12] was more than 100 µM throughout. For the same molecule, the TGI in assay [13], in assay [14], in [15], in assay [16], in assay [18] and in assay [19] was more than 100 µM in each case. Besides, the TGI in assay [20] is more than 100 µM.

For the molecule `CCOC(=O)c1ccc(Nc2nc3ccccc3nc2C(=O)OCC)cc1`, the TGI in [1], in [2], in [3], in assay [4], in [5] and in [6] was more than 100 µM in each case. In addition, the TGI in assay [7], in assay [8], in [9], in assay [10], in [11] and in assay [12] was more than 100 µM in each case. Besides, the TGI in assay [13], in assay [14], in [15], in assay [16], in assay [17] and in assay [18] was more than 100 µM throughout. The same molecule showed a TGI in assay [20] of more than 100 µM.

`C[C@]12CC[C@H](O)CC1=CC[C@@H]1[C@@H]2CC[C@]2(C)C(=N/O)/C(=C/c3ccc([N+](=O)[O-])cc3)C[C@@H]12`: the TGI was 17.7 µM in assay [1]; 15.1 µM in assay [2]; 26.3 µM in assay [3]; 15.7 µM in assay [4]; 7.37 µM in [5]; 29.8 µM in assay [6]. In addition, the TGI was determined as 21.1 µM in [7]; 14.9 µM in [8]; 26.7 µM in assay [9]; 22.1 µM in [10]; 40.8 µM in [11]; 28.4 µM in assay [12]. The TGI in assay [13] worked out at 18.5 µM; in [14] it was 16.4 µM; in assay [15], 5.06 µM; in assay [16], 9.75 µM; in assay [17], 3.32 µM; in assay [18], 22.4 µM. Further, in assay [19], the TGI is more than 100 µM.

Values taken from PubChem BioAssay (NCI).
